Data on two compounds can be found in patent publication US9682947B2, “Substituted lactones for treating cancer” (KUNMING INSTITUTE OF BOTANY, CHINESE ACADEMY OF SCIENCES, priority 2013, dated 2017).

In one assay the test system is leukemia cell. The conditions noted are these: involving activation of caspase-3 and downregulation of Bcl-2 mRNA; cited from earlier work.
For assay [1] the following is noted: mice; cited from earlier work.
Assay [2] concerns DLD-1 cells. Kind of assay: Anchorage-independent growth (soft agar) assay. The conditions noted are these: DLD-1 (p53 mutant), 16, 32 μM, soft agar 2 weeks. The format is cell-based, human. On the procedure: (§1) Anchorage-independent growth (soft agar assay) in soft agar was carried out as described in inventors' previous studies (1.25). Briefly, 1×10^4 cells mixed with various concentration of Compound X in 10% FBS BME containing 0.33% soft agar, was seeded over bottom layer of 0.5% agar in 10% FBS BME in each well of 6-well plates. […]
(§2) Anchorage-independent growth (soft agar assay) in soft agar was carried out as described in Example 1.

Assay [3] relates to HCT116 PUMA−/− cells. Kind of assay: Anchorage-independent growth (soft agar) assay. The format is cell-based, human. To be noted: HCT116 PUMA−/−, 16, 32 μM, soft agar 2 weeks. On the procedure: as §1, §2
The test system of the next assay is HCT116 cells. Kind of assay: Anchorage-independent growth (soft agar) assay. In kind it is cell-based, human. The conditions noted are these: HCT116, 16 and 32 μM, soft agar 2 weeks. On the procedure: as §1, §2
The test system of assay [4] is HT-29 cells. Kind of assay: Anchorage-independent growth (soft agar) assay. The format is cell-based, human. The conditions noted are these: HT-29 (p53 mutant), 16, 32 μM, soft agar 2 weeks. On the procedure:
as §1, §2

Assay [5] relates to HCT116 Bax−/− cells. Kind of assay: Anchorage-independent growth (soft agar) assay. In kind it is cell-based, human. The conditions noted are these: soft agar 14 days. As for the experimental part: as §1
In assay [6] the test system is DLD-1 cells. Kind of assay: Flow cytometry assay with propidium iodide staining (apoptosis). The format is cell-based, human. The conditions noted are these: DLD-1, 16 μM or 32 μM, 48 hours. As for the experimental part: (§3) Flow cytometry assay was assessed as previously described in reference (1.26). After the time periods indicated, the Compound X-treated and control cells were harvested and fixed in 75% ethanol. The fixed cells were stained in the buffer containing 0.1% Triton X-100, 0.2 mg/ml RNase A, and 50 μg/ml PI (propidium iodide) at 4° C. for 1 hour and were then examined by flow cytometry utilizing an Epics XL FACS (Beckman Coulter Inc., Miami, Fla.) and EXPO 32 software as described previously (1.26).
(§4) Flow cytometry assay was carried out as described in Example 1.
(In general: Flow cytometry measures light scatter and fluorescence of single cells or particles in a stream.)

The next assay deals with HCT116 wild-type cells. Described as above. To be noted: 48 h; for cell apoptosis: HCT116 WT. In kind it is cell-based, human. On the procedure: as §3, §4
Assay [7] relates to HT-29 cells. The assay is described as above. The conditions noted are these: HT-29, 16 μM or 32 μM, 48 hours. The format is cell-based, human. As for the experimental part:
as §3, §4

Assay [8] deals with HCT116 Bax−/− cells. The assay is described as above. In kind it is cell-based, human. The conditions noted are these: 48 h. As for the experimental part: as §3
A further assay deals with HCT116 p21−/− cells. The description is as above. The format is cell-based, human. To be noted: 32 μM, 48 h. As for the experimental part: as §3
The next assay has as its system HCT116 p53−/− cells. Described as above. In kind it is cell-based, human. To be noted: 48 h. On the procedure:
as §3

The test system of assay [9] is HCT116 PUMA−/− cells. Described as above. In kind it is cell-based. To be noted: Homo sapiens, HCT-116, 48 h, read-out: inhibition of cell apoptosis in PUMA−/− cells as compared to HCT116 WT. As for the experimental part:
as §3, §4

Assay [10] relates to Cl41 cells. Kind of assay: EGF-induced cell transformation assay in soft agar. In kind it is cell-based, mouse. To be noted: Cl41, 20 ng/ml EGF, dose-dependent. On the procedure: Anchorage-independent growth in soft agar was performed as described previously (3.15). Briefly, 2×10^4 cells mixed with various concentration of Compound X and 20 ng/ml EGF in 10% FBS […] (BMEM) containing 0.33% soft agar, was seeded over bottom layer of 0.5% agar in 10% FBS BMEM in each well of 6-well plates. The plates were incubated in 5% CO2 incubator at 37° C. for 3 weeks, and the colonies with more than 16 cells of each were scored and presented as colonies/1×10^4 cells.

Assay [11] concerns Cl41 cells. Kind of assay: Cell cycle assay (flow cytometry, PI). The conditions noted are these: 24 h, control 63.49%. The format is cell-based, mouse. As for the experimental part: Cell cycle assay was assessed as previously described in reference (3.16). After the time periods indicated, the Compound X-treated and control cells were harvested and fixed in 75% ethanol. The fixed cells were stained with propidium iodide (PI) solution at 4° C. for 30 minutes and were then examined by flow cytometry utilizing an Epics XL FACS (Beckman Coulter Inc., Miami, Fla.) and EXPO 32 software as described previously (3.17).
To assess whether the inhibitory effects of Compound F on growth inhibition of Cl41 cells is mediated via alteration in cell cycle regulation, the inventors evaluated the effect of Compound F2 on cell cycle distribution. The Cl41 cells were synchronized by 0.1% FBS medium for 24 h, and then cultured with 1% FBS medium containing 8, 16, 32 μM of Compound F2 for 24 h.

The next assay deals with caspase-3 and PARP. Kind of assay: Western Blotting, cleavage of caspase 3 and PARP. In kind it is cell-based, human. To be noted: 16 μM, colon cancer cells. On the procedure: (§5) Cellular protein extracts were prepared with cell lysis buffer (10 mM Tris-HCl, pH 7.4, 1% SDS, 1 mM Na3VO4) and resolved by SDS-PAGE. The membranes were probed with the indicated primary antibodies and HRP-conjugated secondary antibody. Signals were detected with the ECL western-blotting system as described in our previous reports (1.27, 1.28).
(In western blotting, separated proteins are transferred to a membrane and probed.)

A further assay concerns p53, p21 and Bax. Kind of assay: Western Blotting, p53, p21 and Bax expression in HCT116 cells. The format is cell-based, human. The conditions noted are these: HCT116 WT, 16 μM. On the procedure: as §5
The subject of the next assay is PUMA. Kind of assay: Western Blot, PUMA induction in WT and p53−/− HCT116 cells. The conditions noted are these: 16 μM. In kind it is cell-based, human. As for the experimental part:
as §5
(§6) See Example 1 for the method.

The test system of the next assay is puma promoter. Kind of assay: PUMA promoter-driven luciferase reporter assay in HCT116 cells. The format is cell-based, human. The conditions noted are these: HCT116, 16 μM. As for the experimental part: (§7) HCT116 cells stably expressing the luciferase reporter constructs were seeded into 96-well plates (5×10^3/well) and subjected to compound treatment when the cultures reached 80˜90% confluence. Cellular lysates were prepared at the indicated time points, and the luciferase activities were determined by a luminometer (Wallac 1420 Victor 2 multilabel counter system) as described in our previous studies (2.24, 2.25). The results are expressed as a relative activity that is normalized to the control cells without treatment.
(In general: A reporter such as luciferase makes a cellular process visible.)

Another assay deals with FoxO3a. Kind of assay: FoxO3a transcription activity dependent luciferase (4×DBE) reporter assay in HCT116 cells. In kind it is cell-based, human. To be noted: HCT116, 16 μM. On the procedure: as §7
The next assay deals with AKT. Kind of assay: Western blot, AKT phosphorylation in HCT116 cells. To be noted: HCT116, 16 μM. In kind it is cell-based, human. On the procedure: as §5, §6
For a further assay, the system named is PHLPP1. Kind of assay: Western blot, PHLPP1 protein expression in HCT116 cells. In kind it is cell-based, human. The conditions noted are these: HCT116, 16 μM. As for the experimental part:
as §5, §6

The next assay relates to p21 and p53. Kind of assay: Western Blot, p21 and p53 expression in Cl41 cells. In kind it is cell-based, mouse. The conditions noted are these: Cl41, 2 to 32 μM, 24 hours. As for the experimental part: as §5, §6
The next assay concerns p21 promoter. Kind of assay: p21 promoter-driven luciferase reporter in Cl41 cells. The format is cell-based, mouse. The conditions noted are these: Cl41, 16 μM, time-dependent.
The test system of the next assay is p53. Kind of assay: p53-luciferase reporter (PG13-luc) in Cl41 cells. To be noted: Cl41, 16 μM. The format is cell-based, mouse.

Molecules are shown by their SMILES. “Also recorded” adds a separate entry of the source.

Consider `CC(=O)O[C@H]1C=CC(=O)O[C@H]1C1OC1c1ccccc1` (some centres unmarked) [cheliensisin A, Cheliensisin A], for which, in the assay on leukemia cell, the leukemia cell apoptosis result is on record as “induced leukemia cell apoptosis”. For the same compound, in [1], the “in vivo antitumor effect” value is recorded as “potent in vivo antitumor effect”.
With `CC(=O)O[C@H]1C=CC(=O)O[C@H]1[C@@H](O)[C@H](F)c1ccccc1` [Compound F2], the anchorage-independent growth result in the assay with DLD-1 cells [2] and in the assay on HT-29 cells [4] was “inhibit anchorage-independent growth” in each case. In addition, the “colony formation, sensitivity vs wild type cells” value in the assay with HCT116 PUMA−/− cells [3] is “significantly more resistant”. For the same compound, the “anchorage-independent growth (size and number of colonies) vs vehicle” value with HCT116 cells is “significantly restrained the size and number of colonies; also recorded: significantly decreased anchorage-independent growth”. For the same compound, the colony formation result in the assay on HCT116 Bax−/− cells [5] is “only partially inhibit colony formation”. Further, the “sub-G1 DNA content (apoptotic peak) vs vehicle control” value in the assay on DLD-1 cells [6] is “substantial increase in sub-G1 DNA content”; in the assay on HCT116 wild-type cells (HCT116, 16 μM or 32 μM), “substantial increase in sub-G1 DNA content”; in the assay on HT-29 cells [7] it was “substantial increase in sub-G1 DNA content”. For the same compound, the cell apoptosis in the assay on HCT116 wild-type cells (16 μM) came out at 18.30%; in the assay on HCT116 wild-type cells (32 μM), 26.27%; in the assay on HCT116 Bax−/− cells [8] (16 μM), 1.00%; with HCT116 Bax−/− cells [8] (32 μM), 0.69%; with HCT116 p21−/− cells, 80.31%; in the assay on HCT116 p53−/− cells (16 μM), 7.41%. Besides, the cell apoptosis in the assay on HCT116 p53−/− cells (32 μM) was determined as 14.18%. Further, the inhibition at 16 µM with HCT116 PUMA−/− cells [9] was more than 90%. Moreover, the “EGF-induced cell transformation and colony formation on soft agar” value in the assay with Cl41 cells [10] is “significantly repressed EGF-induced cell transformation and colony formation”. In addition, the figures for the “proportion of cells in the G0/G1 phase” value in the assay with Cl41 cells [11] (8 μM), in the assay on Cl41 cells [11] (16 μM) and in the assay on Cl41 cells [11] (32 μM) were 77.74%, 79.79% and 80.13%, respectively. Also, in the assay with caspase-3 and PARP, the “cleaved caspases-3 and PARP” value is reported as “detected in a time-dependent manner from 24 h to 48 h; also recorded: detected in a time-dependent manner from 6 hours to 48 hours”. Besides, the “p53, p21 and Bax protein levels” value in the assay with p53, p21 and Bax is “increasing as time-dependent manner”. For the same compound, the “PUMA protein induction, time” value in the assay on PUMA was not above 12 h. Besides, the “puma promoter transcription activity” value in the assay with puma promoter is recorded as “markedly induction of puma promoter transcription activity”. Moreover, the FoxO3a transactivation result in the assay on FoxO3a was “significantly induced FoxO3a transactivation”. In addition, the “phosphorylation of AKT at Ser 473” value in the assay with AKT is reported as “inhibited after exposure to Compound F2 for 12 h or longer”. Further, the PHLPP1 protein expression result in the assay on PHLPP1 is “upregulated”. Besides, the “expression levels of p21 and p53” value in the assay on p21 and p53 was “increased”. In the assay on p21 promoter, the “p21 promoter transcription activity” value was “obvious induction of p21 promoter transcription activity”. The p53 transactivation result in the assay with p53 was “significantly induced p53 transactivation”.
